In patent US8163718B2, “Nucleoside analogues containing phosphonate or phosphonamide groups” (Gilead Sciences, Inc., priority 2008, dated 2012):

Test system: naturally occurring non-Hodgkin's lymphoma
Test: Efficacy in a dog with naturally occurring non-Hodgkin's lymphoma (RECIST)
Assay type: in vivo
Design: key to Lymphnode R PSLN size / Lymphnode L PopLN size / Lymphnode L SMLN size / Lymphnode R SMLN size / Lymphnode L PSLN size: WNL refers to when a lymph node is decreased to a size considered within normal ranges for that node
Details: for % change of sum of lymphnodes: vs baseline sum; for Sum of lymphnodes: Day 0 pre treatment sum 16.9
Procedure: Compound (21) was evaluated for efficacy in a dog with naturally occurring non-Hodgkin's lymphoma (NHL). Canine NHL has proven to be a relevant model for preclinical evaluation of new therapeutics, both for initial induction and rescue of drug-resistant relapse (Reference Vail D M, Thamm D H. Spontaneously occurring tumors in companion animals as models for drug development. In: Teisher B A, ed. Anticancer Drug Development Guide. 2nd ed. Totowa (NJ): Humana Press Inc; 2004; 259-286.) Evaluation of novel therapeutic approaches in dogs with spontaneous cancer offers potential benefit to canine patients and a rapid assessment of therapeutic index. Because the tumors arise spontaneously in an immunologically intact host and have greater heterogeneity than passaged cell lines, it is not surprising that responses to standard chemotherapeutic agents in canine malignancies are similar to those of the corresponding tumors in man and that the preclinical results attained may be more predictive of the activity in humans (references; Khanna C, Paoloni M. Translation of new cancer treatments from pet dogs to humans. Nature Rev Cancer. 2008; 8:7-16.; Vail D M, Young K M. Canine lymphoma and lymphoid leukemia. In: Withrow S J, Vail D M, eds. Small Animal Clinical Oncology. 4th Ed. St. Louis (MO): Saunders; 2007. p. 699-733.) Non-Hodgkin's lymphoma in dogs represents a relatively homogenous population with respect to histological type as defined by the REAL/WHO or NCI-Working Formulation schema (i.e., 85% are medium- to high-grade B-cell NHL) with the majority being diffuse large B-cell lymphoma (reference Jacobs R M, Messick J B, Valli V E. Tumors of the hemolymphatic system. In: Meuten D J, editor. Tumors in Domestic Animals. 4th Ed. Ames (IA): Iowa State Press; 2002:119-198).
Compound (21) was administered at a dose of 0.3 mg/kg of body weight by 30 minute IV infusion in Sterile Saline Injection (0.9% sodium chloride for injection) (total volume 2 ml/kg or 100 ml) once every 21 days to a dog that had non-Hodgkin's lymphoma involving multiple lymphnodes. Diagnosis was confirmed by histological evaluation of the tumor. The effect of treatment on the tumor was measured using the Response Evaluation Criteria in Solid Tumors (RECIST) Guideline (Therasse et al 2000). The size of the tumors and response to treatment was evaluated by in these peripherally accessible lymph nodes, by measuring the longest dimension using callipers and evaluating changes in the individual tumor measurement and their sums. […] Confirmation was done by cytological examination of an aspirated biopsy to confirm the absence of tumor cells.

[1] = Day 7 (printed under the Day 1 column)
[2] = Day 14 (printed under the Day 7 column)
[3] = Day 21 (printed under the Day 14 column)
[4] = Day 28 (printed under the Day 21 column)
[5] = Day 42 (printed under the Day 28 column)

CCCOc1nc(N)nc2c1ncn2CCOCP(=O)(N1CCC[C@H]1C(=O)OCC)N1CCC[C@H]1C(=O)OCC [Example 21]
% change of sum of lymphnodes (Day 1 (printed under the Day 0 column)): −13.0%
Lymphnode L PopLN longest dimension (Day 1, 0.3 mg/kg IV once every 21 days, Day 0 pre treatment 2.3): 2.1 cm
Lymphnode R SMLN longest dimension (Day 1, 0.3 mg/kg IV once every 21 days, Day 0 pre treatment 2.9): 3.1 cm
Lymphnode L SMLN longest dimension (Day 1, 0.3 mg/kg IV once every 21 days, Day 0 pre treatment 3.1): 2.0 cm
Lymphnode R PSLN longest dimension (Day 1, 0.3 mg/kg IV once every 21 days, Day 0 pre treatment 3.6): 3.6 cm
Lymphnode L PSLN longest dimension (Day 1, 0.3 mg/kg IV once every 21 days, Day 0 pre treatment 5.0): 3.9 cm
Sum of lymphnodes (Day 1, 0.3 mg/kg IV once every 21 days): 14.7 cm
Change of sum of lymphnodes (Day 1 vs Day 0 pre treatment sum 16.9): −2.2 cm
Response (RECIST) [1]: PR (Partial Response (PR) if at least a 30% decrease in the sum of the LD of target lesions, taking as reference the baseline sum)
% change of sum of lymphnodes [1]: −66.3%
Lymphnode L PopLN longest dimension (Day 7, 0.3 mg/kg IV once every 21 days, Day 0 pre treatment 2.3): 1.6 cm
Lymphnode R SMLN longest dimension (Day 7, 0.3 mg/kg IV once every 21 days, Day 0 pre treatment 2.9): 1.0 cm
Lymphnode L SMLN longest dimension (Day 7, 0.3 mg/kg IV once every 21 days, Day 0 pre treatment 3.1): 1.1 cm
Lymphnode R PSLN longest dimension (Day 7, 0.3 mg/kg IV once every 21 days, Day 0 pre treatment 3.6): 1.0 cm
Lymphnode L PSLN longest dimension (Day 7, 0.3 mg/kg IV once every 21 days, Day 0 pre treatment 5.0): 1.0 cm
Sum of lymphnodes (Day 7): 5.7 cm
Change of sum of lymphnodes (Day 7 vs Day 0 pre treatment sum 16.9): −11.2 cm
Response (RECIST) [2]: PR (Partial Response (PR) if at least a 30% decrease in the sum of the LD of target lesions, taking as reference the baseline sum)
% change of sum of lymphnodes [2]: −69.2%
Lymphnode L PopLN longest dimension (Day 14, 0.3 mg/kg IV once every 21 days, Day 0 pre treatment 2.3): 1.0 cm
Lymphnode R SMLN longest dimension (Day 14, 0.3 mg/kg IV once every 21 days, Day 0 pre treatment 2.9): 1.0 cm
Lymphnode L SMLN longest dimension (Day 14, 0.3 mg/kg IV once every 21 days, Day 0 pre treatment 3.1): 1.0 cm
Lymphnode R PSLN longest dimension (Day 14, 0.3 mg/kg IV once every 21 days, Day 0 pre treatment 3.6): 1.0 cm
Lymphnode L PSLN longest dimension (Day 14, 0.3 mg/kg IV once every 21 days, Day 0 pre treatment 5.0): 1.2 cm
Sum of lymphnodes (Day 14): 5.2 cm
Change of sum of lymphnodes (Day 14 vs Day 0 pre treatment sum 16.9): −11.7 cm
Lymphnode L PopLN longest dimension (Day 21 (Treatment #2), 0.3 mg/kg IV once every 21 days, Day 0 pre treatment 2.3): 1.3 cm
Lymphnode R SMLN longest dimension (Day 21 (Treatment #2), 0.3 mg/kg IV once every 21 days, Day 0 pre treatment 2.9): 2.0 cm
Lymphnode L SMLN longest dimension (Day 21 (Treatment #2), 0.3 mg/kg IV once every 21 days, Day 0 pre treatment 3.1): 2.3 cm
Lymphnode R PSLN longest dimension (Day 21 (Treatment #2), 0.3 mg/kg IV once every 21 days, Day 0 pre treatment 3.6): 2.7 cm
Lymphnode L PSLN longest dimension (Day 21 (Treatment #2), 0.3 mg/kg IV once every 21 days, Day 0 pre treatment 5.0): 2.8 cm
Sum of lymphnodes (Day 21 (Treatment #2)): 11.1 cm
Response (RECIST) [3]: PR (Partial Response (PR) if at least a 30% decrease in the sum of the LD of target lesions, taking as reference the baseline sum)
% change of sum of lymphnodes [3]: −34.3%
Change of sum of lymphnodes (Day 21 vs Day 0 pre treatment sum 16.9): −5.8 cm
Response (RECIST) [4]: PR (Partial Response (PR) if at least a 30% decrease in the sum of the LD of target lesions, taking as reference the baseline sum)
% change of sum of lymphnodes [4]: −67.5%
Lymphnode R SMLN longest dimension (Day 28, 0.3 mg/kg IV once every 21 days, Day 0 pre treatment 2.9): 1.0 cm
Lymphnode L SMLN longest dimension (Day 28, 0.3 mg/kg IV once every 21 days, Day 0 pre treatment 3.1): 1.5 cm
Lymphnode R PSLN longest dimension (Day 28, 0.3 mg/kg IV once every 21 days, Day 0 pre treatment 3.6): 1.5 cm
Lymphnode L PSLN longest dimension (Day 28, 0.3 mg/kg IV once every 21 days, Day 0 pre treatment 5.0): 1.5 cm
Sum of lymphnodes (Day 28): 5.5 cm
Change of sum of lymphnodes (Day 28 vs Day 0 pre treatment sum 16.9): −11.4 cm
Lymphnode L PopLN size (Day 42 (Treatment #3), 0.3 mg/kg IV once every 21 days, Day 0 pre treatment 2.3): WNL
Lymphnode R SMLN size (Day 42 (Treatment #3), 0.3 mg/kg IV once every 21 days, Day 0 pre treatment 2.9): WNL
Lymphnode L SMLN size (Day 42 (Treatment #3), 0.3 mg/kg IV once every 21 days, Day 0 pre treatment 3.1): WNL**
Lymphnode R PSLN size (Day 42 (Treatment #3), 0.3 mg/kg IV once every 21 days, Day 0 pre treatment 3.6): WNL
Lymphnode L PSLN size (Day 42 (Treatment #3), 0.3 mg/kg IV once every 21 days, Day 0 pre treatment 5.0): WNL
Response (RECIST) [5]: CR (Complete Response (CR) if lymphnodes returned to a size within normal limits)
% change of sum of lymphnodes [5]: −100%
Response to treatment (after one treatment, 0.3 mg/kg IV): Partial Response
reduction in tumor size (starting on Day 7 after the first treatment, continued improvement to day 42): significant reduction in tumor size
Response to treatment (with continued treatment, 0.3 mg/kg IV once every 21 days): Complete Response with complete elimination of the tumor
